Assay results as given in ChEMBL document CHEMBL1155107, “Oxidative transformation of 2-acetylaminofluorene by a chemical model for cytochrome P450: A water-insoluble porphyrin and tert-butyl hydroperoxide” (Bioorg Med Chem, 2008).

System: Salmonella typhimurium
Assay: Toxicity in Salmonella Typhimurium TA1538 assessed as induction of mutagenicity using cytochrome P450 chemical model after 44 hrs by Ames test
Assay type: organism-based
Conditions: salmonella enterica subsp. enterica serovar typhimurium

For CC(=O)Nc1ccc2c(c1)Cc1ccccc1-2 [2-ACETYLAMINOFLUORENE], the Activity was “Dose-dependent effect”.
